According to PMC5478727, “A Novel Small Molecule GDNF Receptor RET Agonist, BT13, Promotes Neurite Growth from Sensory Neurons in Vitro and Attenuates Experimental Neuropathy in the Rat” (Frontiers in Pharmacology, 2017):
Values joined by “and” are separate entries in the source; they are usually repeats but may differ in a detail not shown here. Equal entries are not always repeated.

How the values were obtained:
[1] = system: adult rat lumbar DRG sensory neurons; test: Neurite outgrowth from cultured DRG neurons; assay type: cell-based; conditions: for effect of pre-treatment on BT13-stimulated neurite outgrowth: LY294002 50 μM; for effect of pre-treatment on BT13-stimulated neurite outgrowth / block of BT13-stimulated neurite outgrowth, maximum length, mean difference / block of BT13-stimulated neurite outgrowth, total length, mean difference: PD98059 50 μM, SU6656 2 μM; for block of BT13-stimulated neurite outgrowth, maximum length, mean difference / block of BT13-stimulated neurite outgrowth, total length, mean difference: pre-treatment with inhibitor: LY294002 50 μM
Experimental: Cultured lumbar DRG (L3–L5) neurons were prepared using a published method (O'Mullane et al., [2013]). After plating onto poly-L-ornithine (5 μg/ml)/laminin (5 μg/ml) coated coverslips for 1 h, DRG neurons were cultured for 24–30 h in fresh Neurobasal A/B27. GFLs, BT13, NGF, and vehicle control were added at the start of this period for a 24–30 h treatment, except when preceded by pre-treatment (1 h) with inhibitors (50 μM LY294002; 2 μM SU6656, […]; Biomol Research Laboratories, Plymouth Meeting, PA, USA). DRG neurons were then fixed (4% paraformaldehyde) and processed for immunocytochemistry with 1:200 Mouse anti-β III tubulin/AlexaFluor 594 (Sigma-Aldrich Cat# T8660 RRID:AB_477590) and 1:5,000 rabbit anti-calcitonin gene-related peptide/AlexaFluor 488 (Sigma-Aldrich Cat# C8198 RRID:AB_259091) and DAPI for nuclear staining (0.5 μg/ml, Molecular Probes). Image analysis of multichannel 12 bit Zeiss .ZVI or .TIF files (captured with a Zeiss Imager.M1/MRm camera/Zen software; Carl Zeiss Australia, North Ryde, NSW, Australia) was then performed by a researcher blinded to the experimental condition. Neurite initiation was measured by a single parameter (proportion of neurons with neurites longer than the soma diameter). Neurite elongation was measured by batch processing (HCA-Vision software; CSIRO Mathematical and Information Sciences, North Ryde, NSW, Australia) to obtain four parameters—Root number: number of primary neurites; Maximum length: length of longest neurite; Branch points: number of neurite branch points; and Total length: sum of neurite lengths (Kalous and Keast, [2010]; Kalous et al., [2012]). The number of neurons of each immunocytochemical class counted on each coverslip (technical replicates) was 50 for neurite initiation and 20 for neurite elongation. A minimum of three cultures from different rats (biological replicates) were analyzed for each treatment group.

[2] = system: rats with spinal nerve ligation (L5/L6); test: Spinal nerve ligation (Chung's) model of experimental neuropathy, von Frey test
[3] = molecular target: T1, serotonin receptor 5-HT2C (Homo sapiens, UniProt P28335); test: CEREP 5-HT2C (h) (agonist radioligand); assay type: binding; conditions: reference compound
T1 construct: purchased CEREP (contract assay) 0137, 1003
T1 sequence (P28335 33-458): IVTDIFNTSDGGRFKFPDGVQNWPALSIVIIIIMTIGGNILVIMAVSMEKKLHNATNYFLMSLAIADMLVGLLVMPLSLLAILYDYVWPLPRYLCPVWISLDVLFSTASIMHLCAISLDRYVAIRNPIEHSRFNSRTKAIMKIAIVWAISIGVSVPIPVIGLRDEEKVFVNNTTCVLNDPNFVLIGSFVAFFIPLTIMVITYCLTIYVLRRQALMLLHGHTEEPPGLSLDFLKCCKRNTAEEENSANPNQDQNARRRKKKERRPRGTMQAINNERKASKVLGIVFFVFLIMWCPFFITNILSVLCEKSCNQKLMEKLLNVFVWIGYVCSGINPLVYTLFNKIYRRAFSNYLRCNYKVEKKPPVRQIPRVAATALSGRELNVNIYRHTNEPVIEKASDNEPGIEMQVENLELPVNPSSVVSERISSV

[4] = molecular target: T1, serotonin receptor 5-HT2C; test: CEREP 5-HT2C (h) (antagonist radioligand); assay type: binding; conditions: reference compound
neurotensin receptor NT = test: CEREP NT (non-selective; agonist radioligand); assay type: binding; conditions: reference compound, Cat. No. 0465
[5] = system: dorsal root ganglia neurons of SNL rats; test: Immunohistochemistry of DRG neuronal markers in rats with spinal nerve ligation; assay type: in vivo, rat; conditions: IHC
From the text: DRGs from rats with spinal nerve ligation treated with BT13 or vehicle were embedded in paraffin and sectioned (7 μm thickness). Sections were deparaffinized, subjected to citrate or basic antigen-retrieval procedure and probed with IB4-Alexa 488 [1:200; IB4-Alexa488, Cat# IB4 (isolectin Griffonia simplicifolia IB4) RRID:AB_2314664] and antibodies against calcitonin gene-related peptide (CGRP; 1:10,000, Peninsula Laboratory, Cat# T-4032 RRID:AB_2313775), NPY (1:10,000, Peninsula Laboratory, Cat# T-4070.0050 RRID:AB_518504), pErk1/2 (1:300, Cell Signaling, Cat# 4370L RRID:AB_2297462), pS6 (1:300, Cell Signaling, Cat# 4858L RRID:AB_1031194) or RET [1:100, kind gift of Dr. E. Kramer, Center for Molecular Neurobiology, University Medical Center Hamburg-Eppendorf, Hamburg, Germany (Meka et al., [2015])] and corresponding secondary antibodies conjugated with fluorophores (Donkey Anti-Rabbit Alexa Fluor 647 conjugate, Cat# A31573 RRID:AB_162544; Donkey anti-Mouse Alexa Fluor 647 conjugate, Cat# A-31571 RRID:AB_2536181; Goat anti-Guinea Pig, Alexa Fluor 568 conjugate, Cat# A-11075 RRID:AB_2534119, Thermo Fisher Scientific, USA) or horse radish peroxidase (VECTASTAIN Elite ABC-Peroxidase Kit antibody, Vector Laboratories, CA, USA, Cat# PK-6101 RRID:AB_2336820). In the latter case, to reveal staining slides were treated with ABC and DAB staining kits (Vector Laboratories, CA, USA) according to the manufacturer's instructions. Sections were co-stained with guinea pig anti-PGP9.5 antibodies (Abcam Cat# ab10410 RRID:AB_297150) whenever possible. Nuclei were visualized using hematoxylin or DAPI dyes. Sections were mounted in Immu-Mount (Thermo Scientific, Cat#9990402) or Coverquick 2000 (Q PATH, Cat#05547530) mounting media and images were taken with fluorescent (Zeiss Imager M2 Axio, Carl Zeiss, Germany) or bright-field (Olympus BX-61, Olympus, Japan) microscopes. Neurons were counted for two sections per DRG and the number of cell profiles with nuclei positive for each specific marker was normalized to the total number of the neurons (identified by PGP9.5 staining or by morphology) per section. Ret-positive neurons were clustered by size using Matlab software R2014b (Mathworks, USA). Statistical analysis was performed using data from three to six individual animals. To obtain sufficient sample size, the data from animals treated with 20 and 25 mg/kg of BT13 were combined.

GFRα1/RET = molecular target: T2, GFRα1/RET (Homo sapiens, UniProt P07949); design: method as in Sidorova et al., 2010; conditions: GDNF in this assay, ref Sidorova et al., 2010, cited from earlier work
T2 construct: full-length human RET (long isoform) in pCR3.1; expressed in transfected cells; host or cells: MG87 murine fibroblasts (MG87RET + PathDetect Elk-1 + GFRα1)

[6] = gabapentin single oral dose 100 mg/kg on day 12, 1 h before test

T2 sequence (P07949 29-1114): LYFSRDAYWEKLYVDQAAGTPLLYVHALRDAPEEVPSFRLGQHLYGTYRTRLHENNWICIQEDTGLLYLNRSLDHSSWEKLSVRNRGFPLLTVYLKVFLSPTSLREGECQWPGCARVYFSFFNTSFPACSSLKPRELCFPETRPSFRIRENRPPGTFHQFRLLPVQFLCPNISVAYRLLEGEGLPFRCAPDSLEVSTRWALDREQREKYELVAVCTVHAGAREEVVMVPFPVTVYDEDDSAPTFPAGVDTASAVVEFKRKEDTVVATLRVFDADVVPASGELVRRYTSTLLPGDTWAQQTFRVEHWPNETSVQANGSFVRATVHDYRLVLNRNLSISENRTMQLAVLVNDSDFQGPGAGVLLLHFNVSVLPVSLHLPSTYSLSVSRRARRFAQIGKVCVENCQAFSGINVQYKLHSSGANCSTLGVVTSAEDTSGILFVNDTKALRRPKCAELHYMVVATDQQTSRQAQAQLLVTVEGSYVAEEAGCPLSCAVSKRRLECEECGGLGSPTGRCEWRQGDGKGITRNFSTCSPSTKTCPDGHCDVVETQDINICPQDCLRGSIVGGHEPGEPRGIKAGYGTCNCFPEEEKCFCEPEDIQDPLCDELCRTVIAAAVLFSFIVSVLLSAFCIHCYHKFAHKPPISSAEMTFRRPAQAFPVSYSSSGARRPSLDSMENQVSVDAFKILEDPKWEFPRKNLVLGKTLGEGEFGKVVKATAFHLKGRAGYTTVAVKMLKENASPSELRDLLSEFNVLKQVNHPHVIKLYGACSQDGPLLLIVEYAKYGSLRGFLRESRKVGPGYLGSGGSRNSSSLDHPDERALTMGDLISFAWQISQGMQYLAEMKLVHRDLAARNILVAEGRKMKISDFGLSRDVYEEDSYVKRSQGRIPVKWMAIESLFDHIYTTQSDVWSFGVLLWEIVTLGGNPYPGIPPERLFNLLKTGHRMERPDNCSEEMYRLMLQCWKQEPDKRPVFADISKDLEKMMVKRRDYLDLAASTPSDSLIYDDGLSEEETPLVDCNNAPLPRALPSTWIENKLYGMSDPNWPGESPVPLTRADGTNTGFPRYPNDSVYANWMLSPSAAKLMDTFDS

Molecule: O=c1cc(N2CCOCC2)oc2c(-c3ccccc3)cccc12 [LY294002, reference compound]
- effect of pre-treatment on BT13-stimulated neurite outgrowth [1]: completely blocked
- block of BT13-stimulated neurite outgrowth, branch points, mean difference ([1]; pre-treatment with LY294002 50 μM, BT13 100 ng/ml): 22 ± 5
- block of BT13-stimulated neurite outgrowth, maximum length, mean difference ([1]; BT13 100 ng/ml): 100.7 ± 13 μm
- block of BT13-stimulated neurite outgrowth, total length, mean difference ([1]; BT13 100 ng/ml): 817 ± 207 μm

Molecule: NCC1(CC(=O)O)CCCCC1 [gabapentin, reference compound]
- contralateral PWT [2, 6]: 26 ± 0.0
- ipsilateral PWT [2, 6]: 24.2 ± 1.83

Molecule: COc1cccc(-c2cc(=O)c3ccccc3o2)c1N [PD98059, reference compound]
- effect of pre-treatment on BT13-stimulated neurite outgrowth [1]: completely blocked
- block of BT13-stimulated neurite outgrowth, maximum length, mean difference ([1]; BT13 100 ng/ml): 78 ± 17 μm
- block of BT13-stimulated neurite outgrowth, total length, mean difference ([1]; BT13 100 ng/ml): 449 ± 113 μm

Molecule: COc1cc(CC(C)N)c(OC)cc1I (racemic) [(±)DOI]
- IC50 ([3]; Cat. No. 1003): 0.46 nM
- Ki ([3]; Cat. No. 1003, read-out: Ki Ref): 0.42 nM

Molecule: COc1cc(OC)c(C(=O)CCCCN2CCC3(CC2)NC(=O)NC3=O)cc1NS(=O)(=O)c1ccc(C(F)(F)F)cc1 [RS 102221]
- IC50 ([4]; Cat. No. 0137): 3 nM
- Ki ([4]; Cat. No. 0137, read-out: Ki Ref): 0.99 nM

Molecule: CN(C)S(=O)(=O)c1ccc2c(c1)/C(=C/c1cc3c([nH]1)CCCC3)C(=O)N2 [SU6656, reference compound]
- effect of pre-treatment on BT13-stimulated neurite outgrowth [1]: completely blocked
- block of BT13-stimulated neurite outgrowth, maximum length, mean difference ([1]; BT13 100 ng/ml): 116 ± 53 μm
- block of BT13-stimulated neurite outgrowth, total length, mean difference ([1]; BT13 100 ng/ml): 1098 ± 343 μm

Molecule: Neurotensin
- IC50 (neurotensin receptor NT): 2.9 nM
- Ki (neurotensin receptor NT; read-out: Ki Ref): 2.7 nM

B1: artemin (protein, UniProt Q5T4W7 108-220, looked up)
Artemin: AGGPGSRARAAGARGCRLRSQLVPVRALGLGHRSDELVRFRFCSGSCRRARSPHDLSLASLLGAGALRPPPGSRPVSQPCCRPTRYEAVSFMDVNSTWRTVDRLSATACGCLG
notes: GDNF family ligand protein from PeproTech
- reduction in the number of RET-positive cells in DRGs after SNL ([5]; day 12 after SNL): restored
- number of large RET-positive neurons in lesioned DRGs ([5]; size above 1,000 μm^2, vs contralateral): increased
- number of small RET-positive neurons in lesioned DRGs ([5]; size below 1,000 μm^2, vs contralateral): decreased
- increase of ipsilateral paw withdrawal threshold (PWT) ([2]; ARTN 0.5 mg/kg s.c. on days 1, 3, 5, 8, 10, 12, von Frey, day 12 post-surgery): 2.6 times
- neurite initiation or extension ([1]; CGRP-negative neurons, NGF 10 ng/ml, ARTN 30 ng/ml, BT13 100 ng/ml): no effect
- neurite elongation significantly increased ([1]; CGRP-positive neurons, ARTN 30 ng/ml): not
- neurite initiation ([1]; CGRP-positive neurons, NGF 10 ng/ml, ARTN 30 ng/ml, BT13 100 ng/ml, overnight): significantly increased
- proportion of DRG neurons that expressed CGRP in culture ([1]; NGF 10 ng/ml, ARTN 30 ng/ml, BT13 100 ng/ml): did not alter

B2: glial cell line-derived neurotrophic factor (protein, UniProt P39905 78-211, looked up)
Glial cell line-derived …: SPDKQMAVLPRRERNRQAAAANPENSRGKGRRGQRGKNRGCVLTAIHLNVTDLGLGYETKEELIFRYCSGSCDAAETTYDKILKNLSRNRRLVSDKVGQACCRPIAFDDDLSFLDDNLVYHILRKHSAKRCGCI
notes: as for B1
- efficacy, fold induction of luciferase above baseline (GFRα1/RET): 84.9 fold and 50–100 fold
- EC50 (GFRα1/RET; read-out: EC50, luciferase activation): 1.2 nM
